Data published in US9150571B2, “Crystalline forms of fused amino pyridines as HSP90 inhibitors” (Debiopharm International SA, priority 2011, dated 2015).
In brackets after ≈: the same amount, converted by molar mass.

How the values were obtained:
Assay type in all cases: physicochemical
[1] = Solubility, EP (European Pharmacopoeia) aliquot addition method; details: 25° C., EP method (kinetic solubility)
Method: All samples to be tested were passed through number 180 and number 125 sieves to ensure that they were finely powdered prior to testing, i.e. not less than 95% of sample mass passed through a […] sieve and not more than 40% passed through a 38 μm sieve.
The vial containing the test material and chosen solvent was shaken on a vortex mixer for 1 minute. The vial was placed in a water bath maintained at 25° C.±0.5° C. for 15 minutes. If particles were still remaining, the vial was shaken again for 1 minute using the vortex mixer and returned to the water bath for a further 15 minutes.
Approximately 100 mg of the test material was weighed into a vial and 0.1 mL of the chosen solvent was added. This was treated as described in the procedure above. […] After each addition of solvent the contents of the vial were treated as described in the dissolving procedure. […] After the dissolving procedure was complete, the solubility of the material was visually determined. […] Results obtained were reported.
The solubility of Compound 1 Form I was determined by two different methods. The EP (European Pharmacopoeia) method is an aliquot addition method which gives a rough assessment of kinetic solubility. The equilibrium method requires the suspension of solid for an extended period in the dissolving medium. […]

[2] = Dynamic vapour sorption (DVS) hygroscopicity
Method: Dynamic Vapour Sorption (DVS) was performed using a Hiden Analytical Instruments IGAsorp Vapour Sorption Balance. Approximately 15 mg of sample was placed into a wire-mesh vapour sorption balance pan, loaded into the IGAsorp vapour sorption balance and held at 25° C.±0.1° C. The sample was subjected to a step profile from 0 to 90% RH at 10% increments, followed by desorption from […] to 0% RH at 10% increments. The equilibrium criterion was set to 99.5% step completion within a minimum of 60 minutes and a maximum of 10 hours for each increment. The weight change during the sorption cycle was monitored, allowing for the hygroscopic nature of the sample to be determined. The data collection interval was in seconds.
DVS analysis was used to investigate the hygroscopicity of Compound 1 Form I (FIG. 11). […] The overall weight gain up to 95% RH was 0.06% and weight gained up to 80% RH only 0.08%.
After completion of the cycle, the sample was removed from the instrument and no weight change was observed.

[3] = Intrinsic dissolution rate (IDR); details: pH 5.0 USP buffer, 37° C., 50 RPM; Form I from one non capped pellet
Method: For intrinsic dissolution studies (IDR) an isocratic HPLC method with a shorter run time (10 mins) was used due to the high number of sample analyses required (Table 2).
Distek 8 mm intrinsic dissolution apparatus was used for the study. The three fixed screws on the surface plate were inserted through the three holes on the die and fastened with the supplied washers and nuts. 100 mg of test material was placed in the die cavity. The punch was inserted into the cavity and compressed, with the aid of a bench top hydraulic press for 30 sec at 1 ton pressure. The surface plate was disconnected from the die to expose a compact pellet of 0.5 cm^2 surface area. The pellets were checked for any breaks and cracks on the surface. Only the pellets with flat even surface with no irregularities were used for the study. The Viton gasket was placed around the threaded shoulder of the die and a polypropylene cap was screwed on to the threads. The assembly was immersed, pellet side up, into the bottom of the dissolution vessel (flat bottom) containing dissolution medium at 37° C. The media is degassed under helium purge for 15 min prior to use.
• Dissolution media: pH 5.0 USP buffer • Vessel volume: 900 mL • Rotation speed: 50 RPM • Temperature: 37° C.±0.5° C. • Sampling time points: 30, 60, 90, 120 and 150 mins • Sample size: 1 mL • Sample analysis: By HPLC (conditions in Table 2 above)
Three samples of Form I, II, III and trihydrate were checked for IDR in USP pH 5.0 buffer. The samples were checked for any changes in their surface after dropping into the dissolution medium. […] The particles relax on contact with water during dissolution, causing capping of the surface. So IDR was calculated for Form I based on drug release from one non capped pellet. […] The samples were collected manually through a cannula fitted with 10 μm inline filters. The samples collected from dissolution run were analyzed by HPLC.
The average of all three runs was used to plot and calculate the IDR of samples, with the exception of Form I. The average dissolution profile for each Form is shown in FIG. 12.
After the dissolution test, the remaining portion of the pressed discs were dried in air and examined by XRPD.

[4] = Equilibrium solubility in buffer, HPLC
Method: Approximately 25 mg of test substance was weighed into glass test tubes. The relevant volume of buffer solution (10 mL) was added to each vessel. The tests were performed in duplicate. The vessels were lightly sealed and agitated at 25°C. in a shaking thermostatted water bath protected from light. Sampling was performed after 24 hours and thereafter not less than 20 hours between sample time points. Sampling was performed by filtration of a portion of the test slurry through a 0.2 μm filter and dilution in appropriate media for HPLC analysis.
Equilibrium solubility was determined by HPLC by using:
[formula] where the Standard Purity was taken as 95%.
Buffer pH 7.0 samples were prepared by removing approximately 1 mL of the solution from the appropriate glass test tube and filtering into a HPLC vial using a PTFE 0.2 μm syringe filter. The concentration of the Compound 1 in the filtrate was determined by comparison with data of the standard sample (about 0.25 mg/g).
Buffer pH 5.0 samples were prepared by removing approximately 1 mL of the solution from the appropriate glass test tube and filtering into a HPLC vial using a PTFE 0.2 μm syringe filter. The filtered solution was diluted by a factor of 5 and approximately 1 mL of this solution was added into a HPLC vial for analysis. The concentration of the Compound 1 in the filtrate was determined by comparison with data of the standard sample (about 0.25 mg/g).
At the end of the solubility study, the solids were isolated from the experimental slurries, filtered, dried and analyzed by XRPD in order to determine the physical form.
The solubility of Compound 1 Form I was determined by two different methods. The EP (European Pharmacopoeia) method is an aliquot addition method which gives a rough assessment of kinetic solubility. The equilibrium method requires the suspension of solid for an extended period in the dissolving medium. […] The EP method indicated solubility of Compound 1 Form I to be insoluble in water and be soluble in ethanol at 33-100 mg/ml.
The concentration of the samples was assessed by HPLC.

[5] = Interconversion experiments in ethyl acetate suspension (thermodynamic stability of forms), XRPD; details: for temperature range in which the form is the most stable polymorph (Form I/II transition): from interconversion experiments at 5, 10, 15, 21 & 60° C.
Method: Interconversion experiments were carried out using Forms I, II and III at 5° C., 10° C., 15° C., 21° C. and 60° C. in ethyl acetate. Suspensions of approximately equivalent amounts (about 75 mg) of each form in ethyl acetate (1.2 mL) were prepared and agitated at different temperatures. The slurries were stirred and sampled periodically (200 μL aliquot) after 30 mins and over the period of 10 days or until when near complete or complete conversion had occurred. The sampled aliquot was filtered, air dried and analyzed by XRPD.
In solvent mediated conversions, seeds of all Forms are present and there is no activation energy barrier to interconversion. This technique is used to identify the ‘true’ transition temperature and the thermodynamic relationship between the Forms. In order to determine the order of stability between each individual form interconversion experiments were performed using suspensions of pairs of each form in ethyl acetate at 5, 10 and 15° C. and suspensions of all Forms together at 21° C. and 60° C. The stirred suspensions of Forms I, II and III were sampled after 0.5 hr (t0), after 1, 2 and 3 days (t1-3) and 6 and 10 days if required.

[6] = Critical water activity for trihydrate formation in acetone/water; details: 21° C.
Method: Experiments to determine the critical water activity level with respect to trihydrate formation were performed in acetone/water. Different % v/v ratios of water in acetone were used for suspensions at 21° C. […] Using the Wilson VLE model, this equates to 0.38-0.49 or 0.35-0.44 using the UNIFAC model. This provides useful information for process chemists and formulators in later development.

For `CN(C)c1cc2c(cc1Sc1nc3c(N)nccc3n1CCNCC(C)(C)C)OCO2` [Compound 1 Form I], which solubility at 15 min ([1]; organic solvent or mixture, ethanol) is on record?
The solubility at 15 min was 33 to 100 mg/mL (≈ 74.6 to 226 mM).

And the “solubility in water (EP method)” value ([1]; water)?
The value was “insoluble”.

What about the “weight gained up to 80% RH” value ([2]; DVS, 25° C., up to 80% RH) of the same compound?
Its value is 0.08%.

And the “overall weight gain up to 95% RH” value ([2]; DVS, 25° C., up to 95% RH)?
Its value is 0.06%.

What about the “hygroscopicity classification (European Pharmacopoeia)” value ([2]; weight increase at 80% RH (25° C.)) of the same compound?
Its value is “non-hygroscopic”.

What about the IDR [3] of the same compound?
Its IDR is 0.101 mg cm^−2 min^−1.

And the “MEAN SOLUBILITY pH 5.1” value ([4]; day 1, buffer pH 5.1, 25°C)?
Its value is 1.101 MG/G.

And the “MEAN SOLUBILITY pH 7.0” value ([4]; day 1, buffer pH 7.0, 25°C)?
The value was 0.074 MG/G.

And the “MEAN SOLUBILITY pH 5.1” value ([4]; day 2, buffer pH 5.1, 25°C)?
Its value is 0.735 MG/G.

And the “MEAN SOLUBILITY pH 7.0” value ([4]; day 2, buffer pH 7.0, 25°C)?
The value was 0.043 MG/G.

And the “MEAN SOLUBILITY pH 5.1” value ([4]; day 3, buffer pH 5.1, 25°C)?
The value was 0.587 MG/G.

What about the “MEAN SOLUBILITY pH 7.0” value ([4]; day 3, buffer pH 7.0, 25°C) of the same compound?
Its value is 0.031 MG/G.

What about the “MEAN SOLUBILITY pH 5.1” value ([4]; day 4, buffer pH 5.1, 25°C) of the same compound?
Its value is 0.507 MG/G.

And the “MEAN SOLUBILITY pH 7.0” value ([4]; day 4, buffer pH 7.0, 25°C)?
The value was 0.025 MG/G.

What about the “thermodynamically most stable form” value ([5]; 21° C., ethyl acetate suspension of Forms I, II and III) of the same compound?
The value was “thermodynamically most stable form”.

And the “thermodynamically most stable form” value ([5]; 60° C., ethyl acetate suspension of Forms I, II and III)?
The value was “thermodynamically most stable form”.

And the “temperature range in which the form is the most stable polymorph (Form I/II transition)” value [5]?
Its value is “above 18±2 °C”.

For `CN(C)c1cc2c(cc1Sc1nc3c(N)nccc3n1CCNCC(C)(C)C)OCO2` [Form III], which IDR [3] is on record?
Its IDR is 0.266 mg cm^−2 min^−1.

Which IDR [3] does the source give for `CN(C)c1cc2c(cc1Sc1nc3c(N)nccc3n1CCNCC(C)(C)C)OCO2` [Form II] here?
The IDR was 0.098 mg cm^−2 min^−1.

What about the “thermodynamically most stable form” value ([5]; 5° C., ethyl acetate suspension of pairs of forms) of the same compound?
The value was “thermodynamically most stable form”.

What about the “thermodynamically most stable form” value ([5]; 10° C., ethyl acetate suspension of pairs of forms) of the same compound?
The value was “thermodynamically most stable form”.

And the “thermodynamically most stable form” value ([5]; 15° C., ethyl acetate suspension of pairs of forms)?
The value was “thermodynamically most stable form”.

And the “temperature range in which the form is the most stable polymorph (Form I/II transition)” value [5]?
Its value is “lower than 18±2 °C”.

With `CN(C)c1cc2c(cc1Sc1nc3c(N)nccc3n1CCNCC(C)(C)C)OCO2` [Trihydrate] as the compound, how does the “critical water activity, UNIFAC model” value ([6]; UNIFAC model) read?
The value was 0.35-0.44.

What about the “critical water activity, Wilson VLE model” value ([6]; Wilson VLE model) of the same compound?
Its value is 0.38-0.49.

And the IDR [3]?
Its IDR is 0.184 mg cm^−2 min^−1.
